# Reference: patent US9908868B2, “Isoindolinone compounds as GPR119 modulators for the treatment of diabetes, obesity, dyslipidemia and related disorders” (SANOFI, priority 2014, dated 2018)
# Target: T1, human GPR119 (Homo sapiens, UniProt Q8TDV5)
# T1 construct: expressed in transfected cells
# T1 sequence (Q8TDV5 1-335): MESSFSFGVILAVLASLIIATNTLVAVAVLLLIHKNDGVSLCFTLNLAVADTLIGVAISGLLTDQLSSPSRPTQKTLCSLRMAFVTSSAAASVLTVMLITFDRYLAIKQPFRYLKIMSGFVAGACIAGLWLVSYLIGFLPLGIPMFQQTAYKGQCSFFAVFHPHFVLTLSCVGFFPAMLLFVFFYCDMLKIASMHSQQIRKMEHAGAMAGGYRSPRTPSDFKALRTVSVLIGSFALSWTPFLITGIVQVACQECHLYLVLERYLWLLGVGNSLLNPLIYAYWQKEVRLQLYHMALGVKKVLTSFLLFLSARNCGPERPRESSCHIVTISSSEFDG
# Assay: Functional cellular assay measuring GPR119-mediated cAMP release (HTRF) in HEK-293 cells stably expressing recombinant human GPR119
# Assay type: cell-based
# Settings: cAMP response, cell line expressing human GPR119, 30 minutes at room temperature
# How it was run: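 HEK-293 cells stably expressing recombinant human GPR119, suspended at 400000 cells/mL in HBSS/20 mM HEPES/0.1% BSA/2 mM IBMX, exposed to compound for 30 minutes at room temperature. cAMP detected by HTRF (665/620 nm ratio) after 1 h with reagents in lysis buffer. EC50 taken as concentration giving 50% of maximal activation.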
row,SMILES,EC50 [nM]
1,"C[S@@+]([O-])CN1Cc2ncc(N3CC[C@@H](Oc4ccc(OCC(F)(F)F)nc4)C3=O)cc2C1=O [Example 1-69, 6-((R)-methanesulfinylmethyl)-3-{(R)-2-oxo-3-[6-(2,2,2-trifluoro-ethoxy)-pyridin-3-yloxy]-pyrrolidin-1-yl}-6,7-dihydro-pyrrolo[3,4-b]pyridin-5-one]",131
2,"CCOc1ccc(O[C@@H]2CCN(c3cc(F)c4c(c3)C(=O)N(CC(=O)NCCO)C4)C2=O)cn1 [Example 4-15, 2-[6-[(3R)-3-[(6-ethoxy-3-pyridyl)oxy]-2-oxo-pyrrolidin-1-yl]-4-fluoro-1-oxo-isoindolin-2-yl]-N-(2-hydroxyethyl)acetamide]",547
3,"NC(=O)CN1Cc2ccc(N3CC[C@@H](Oc4ccc(-c5nccs5)cc4)C3=O)cc2C1=O [Example 2-51, 2-[1-oxo-6-[(3R)-2-oxo-3-(4-thiazol-2-ylphenoxy)pyrrolidin-1-yl]isoindolin-2-yl]acetamide]",126
4,"CN1Cc2c(F)cc(N3CC[C@@H](Oc4ccc(OCCC5CC5)nc4)C3=O)cc2C1=O [Example 5-04, 6-[(3R)-3-[[6-(2-cyclopropylethoxy)-3-pyridyl]oxy]-2-oxo-pyrrolidin-1-yl]-4-fluoro-2-methyl-isoindolin-1-one]",1240
5,"CS(=O)(=O)CN1Cc2ncc(N3CC[C@@H](Oc4ccc(Oc5ccc(F)cc5)nc4)C3=O)cc2C1=O [Example 1-66, 3-[(3R)-3-[[6-(4-fluorophenoxy)-3-pyridyl]oxy]-2-oxo-pyrrolidin-1-yl]-6-(methylsulfonylmethyl)-7H-pyrrolo[3,4-b]pyridin-5-one]",163
6,"CC1(C(=O)c2ccc(O[C@@H]3CCN(c4ccc5c(c4)C(=O)N(CC(N)=O)C5)C3=O)cc2)CC1 [Example 2-55, 2-[6-[(3R)-3-[4-(1-methylcyclopropanecarbonyl)phenoxy]-2-oxo-pyrrolidin-1-yl]-1-oxo-isoindolin-2-yl]acetamide]",207
7,"CNC(=O)CN1Cc2c(F)cc(N3CC[C@@H](Oc4ccc(OCCC5CC5)nc4)C3=O)cc2C1=O [Example 4-28, 2-[6-[(3R)-3-[[6-(2-cyclopropylethoxy)-3-pyridyl]oxy]-2-oxo-pyrrolidin-1-yl]-4-fluoro-1-oxo-isoindolin-2-yl]-N-methyl-acetamide]",49
8,"COC(=O)CN1Cc2c(F)cc(N3CC[C@@H](Oc4ccc(OCCC5CC5)nc4)C3=O)cc2C1=O [Example 1-35, methyl 2-[6-[(3R)-3-[[6-(2-cyclopropylethoxy)-3-pyridyl]oxy]-2-oxo-pyrrolidin-1-yl]-4-fluoro-1-oxo-isoindolin-2-yl]acetate]",19
9,"CC(C)c1noc(-c2ccc(O[C@@H]3CCN(c4ccc5c(c4)C(=O)N(CC(=O)N(C)C)C5)C3=O)cc2)n1 [Example 2-34, 2-[6-[(3R)-3-[4-(3-isopropyl-1,2,4-oxadiazol-5-yl)phenoxy]-2-oxo-pyrrolidin-1-yl]-1-oxo-isoindolin-2-yl]-N,N-dimethyl-acetamide]",84
10,"CCn1nnnc1-c1ccc(O[C@@H]2CCN(c3ccc4c(c3)C(=O)N(CC(=O)N(C)C)C4)C2=O)cc1 [Example 2-39, 2-[6-[(3R)-3-[4-(1-ethyltetrazol-5-yl)phenoxy]-2-oxo-pyrrolidin-1-yl]-1-oxo-isoindolin-2-yl]-N,N-dimethyl-acetamide]",27000
11,"CCNC(=O)CN1Cc2ccc(N3CC[C@@H](Oc4ccc(OCC(F)(F)F)nc4)C3=O)cc2C1=O [Example 4-39, N-ethyl-2-[1-oxo-6-[(3R)-2-oxo-3-[[6-(2,2,2-trifluoroethoxy)-3-pyridyl]oxy]pyrrolidin-1-yl]isoindolin-2-yl]acetamide]",205
12,"CCOC(=O)CCc1cc(O[C@@H]2CCN(c3ccc4c(c3)C(=O)N(CC(=O)N(C)C)C4)C2=O)ccc1Cl [Example 2-45, ethyl 3-[2-chloro-5-[(3R)-1-[2-[2-(dimethylamino)-2-oxo-ethyl]-3-oxo-isoindolin-5-yl]-2-oxo-pyrrolidin-3-yl]oxy-phenyl]propanoate]",1510
13,"O=C1c2cc(N3CC[C@@H](Oc4ccc(OCCC5CC5)nc4)C3=O)cc(F)c2CN1CCO [Example 1-36, 6-[(3R)-3-[[6-(2-cyclopropylethoxy)-3-pyridyl]oxy]-2-oxo-pyrrolidin-1-yl]-4-fluoro-2-(2-hydroxyethyl)isoindolin-1-one]",142
14,"C[S+]([O-])CN1Cc2ncc(N3CC[C@@H](Oc4ccc(Oc5ccc(F)cc5)nc4)C3=O)cc2C1=O (stereo partly drawn) [Example 1-55, 3-[(3R)-3-[[6-(4-fluorophenoxy)-3-pyridyl]oxy]-2-oxo-pyrrolidin-1-yl]-6-(methylsulfinylmethyl)-7H-pyrrolo[3,4-b]pyridin-5-one]",106
15,"CS(=O)(=O)CN1Cc2ncc(N3CC[C@@H](Oc4ccc(OCC(F)(F)F)nc4)C3=O)cc2C1=O [Example 1-67, 6-(methylsulfonylmethyl)-3-[(3R)-2-oxo-3-[[6-(2,2,2-trifluoroethoxy)-3-pyridyl]oxy]pyrrolidin-1-yl]-7H-pyrrolo[3,4-b]pyridin-5-one]",81
16,"CC(C(=O)O)N1Cc2ccc(N3CC[C@@H](Oc4ccc(OCC5CC5)nc4)C3=O)cc2C1=O (stereo partly drawn) [Example 1-02, 2-[6-[(3R)-3-[[6-(cyclopropylmethoxy)-3-pyridyl]oxy]-2-oxo-pyrrolidin-1-yl]-1-oxo-isoindolin-2-yl]propanoic acid]",2030
17,"CCOc1ccc(O[C@@H]2CCN(c3cc(F)c4c(c3)C(=O)N(CC(=O)N(C)C)C4)C2=O)cn1 [Example 4-21, 2-[6-[(3R)-3-[(6-ethoxy-3-pyridyl)oxy]-2-oxo-pyrrolidin-1-yl]-4-fluoro-1-oxo-isoindolin-2-yl]-N,N-dimethyl-acetamide]",222
18,"O=C(CN1Cc2ccc(N3CC[C@@H](Oc4ccc(OCC5CC5)nc4)C3=O)cc2C1=O)NCc1nnn[nH]1 [Example 4-30, 2-[6-[(3R)-3-[[6-(cyclopropylmethoxy)-3-pyridyl]oxy]-2-oxo-pyrrolidin-1-yl]-1-oxo-isoindolin-2-yl]-N-(1H-tetrazol-5-ylmethyl)acetamide]",749
19,"CCOC(=O)CN1Cc2ccc(N3CC[C@@H](Oc4ccc(OCC(F)(F)F)nc4)C3=O)cc2C1=O [Example 1-64, ethyl 2-[1-oxo-6-[(3R)-2-oxo-3-[[6-(2,2,2-trifluoroethoxy)-3-pyridyl]oxy]pyrrolidin-1-yl]isoindolin-2-yl]acetate]",27

# The remaining lines, values ahead:
row,EC50 [nM],SMILES
1,739,"CN(C)C(=O)CN1Cc2ccc(N3CC[C@@H](Oc4ccc(F)cc4)C3=O)cc2C1=O [Example 2-09, 2-[6-[(3R)-3-(4-fluorophenoxy)-2-oxo-pyrrolidin-1-yl]-1-oxo-isoindolin-2-yl]-N,N-dimethyl-acetamide]"
2,1500,"Cc1noc(COc2ccc(O[C@@H]3CCN(c4ccc5c(c4)C(=O)N(CC(=O)N(C)C)C5)C3=O)cc2)n1 [Example 2-43, N,N-dimethyl-2-[6-[(3R)-3-[4-[(3-methyl-1,2,4-oxadiazol-5-yl)methoxy]phenoxy]-2-oxo-pyrrolidin-1-yl]-1-oxo-isoindolin-2-yl]acetamide]"
3,1470,"CN(C)C(=O)CN1Cc2ccc(N3CC[C@@H](Oc4ccc(N5CCCC5=O)cc4)C3=O)cc2C1=O [Example 2-28, N,N-dimethyl-2-[1-oxo-6-[(3R)-2-oxo-3-[4-(2-oxopyrrolidin-1-yl)phenoxy]pyrrolidin-1-yl]isoindolin-2-yl]acetamide]"
4,261,"CN(C)C(=O)CN1Cc2ccc(N3CC[C@@H](Oc4ccc(Oc5ccccn5)cc4)C3=O)cc2C1=O [Example 2-23, N,N-dimethyl-2-[1-oxo-6-[(3R)-2-oxo-3-[4-(2-pyridyloxy)phenoxy]pyrrolidin-1-yl]isoindolin-2-yl]acetamide]"
5,115,"Cc1cc(O[C@@H]2CCN(c3ccc4c(c3)C(=O)N(CC(=O)N(C)C)C4)C2=O)cnc1OCC1CC1 [Example 2-07, 2-[6-[(3R)-3-[[6-(cyclopropylmethoxy)-5-methyl-3-pyridyl]oxy]-2-oxo-pyrrolidin-1-yl]-1-oxo-isoindolin-2-yl]-N,N-dimethyl-acetamide]"
6,44,"CCCCC(=O)c1ccc(O[C@@H]2CCN(c3ccc4c(c3)C(=O)N(CC(=O)N(C)C)C4)C2=O)cc1 [Example 2-12, N,N-dimethyl-2-[1-oxo-6-[(3R)-2-oxo-3-(4-pentanoylphenoxy)pyrrolidin-1-yl]isoindolin-2-yl]acetamide]"
7,106,"O=C(CN1Cc2ccc(N3CC[C@@H](Oc4ccc(OCC5CC5)nc4)C3=O)cc2C1=O)N1CCCC1 [Example 4-01, 6-[(3R)-3-[[6-(cyclopropylmethoxy)-3-pyridyl]oxy]-2-oxo-pyrrolidin-1-yl]-2-(2-oxo-2-pyrrolidin-1-yl-ethyl)isoindolin-1-one]"
8,556,"O=C(CN1Cc2ccc(N3CC[C@@H](Oc4ccc(OCC5CC5)nc4)C3=O)cc2C1=O)NC[C@@H](O)CO [Example 4-35, 2-[6-[(3R)-3-[[6-(cyclopropylmethoxy)-3-pyridyl]oxy]-2-oxo-pyrrolidin-1-yl]-1-oxo-isoindolin-2-yl]-N-[(2R)-2,3-dihydroxypropyl]acetamide]"
9,2120,"CN(C)C(=O)CN1Cc2ccc(N3CC[C@@H](Oc4ccc(NCC5CC5)nc4)C3=O)cc2C1=O [Example 2-08, 2-[6-[(3R)-3-[[6-(cyclopropylmethylamino)-3-pyridyl]oxy]-2-oxo-pyrrolidin-1-yl]-1-oxo-isoindolin-2-yl]-N,N-dimethyl-acetamide]"
10,72,"CN(C)C(=O)CN1Cc2ccc(N3CC[C@@H](Oc4ccc(C(=O)CC5CC5)cc4)C3=O)cc2C1=O [Example 2-21, 2-[6-[(3R)-3-[4-(2-cyclopropylacetyl)phenoxy]-2-oxo-pyrrolidin-1-yl]-1-oxo-isoindolin-2-yl]-N,N-dimethyl-acetamide]"
